Experimental data: publication PMC7230990, “Deproteinization as a Rapid Method of Saliva Purification for the Determination of Carbamazepine and Carbamazepine-10,11 Epoxide” (Journal of Clinical Medicine, 2020)
“And” between values parts separate entries of the source, which are not always exact repeats. Equal values may be shown once.

Legend:
[1] = Stability of extracts kept in the autosampler at 15 °C for 72 h; type: physicochemical; conditions: extracts in autosampler at 15 °C for 72 h
Method: The stability of the analytes was also determined during their storage in an autosampler at 15 °C for 72 h. For this purpose, five samples of each concentration were extracted and chromatographed. After 72 h, the samples were then chromatographed again alongside a freshly prepared calibration curve.
(§1) The compounds whose concentration decreased by less than 15% under the given storage conditions were considered to be stable.

[2] = Stability of analytes in spiked saliva stored in a fridge at 8 °C; type: in vitro ADME, human; conditions: for stability under the tested conditions: saliva at 8 °C, freeze–thaw at −21 °C, autosampler 15 °C 72 h, 30, 2000, 3750 ng/mL, stable = decrease less than 15%; for Difference (%): spiked saliva stored in a fridge at 8 °C
Method: The stability of the analytes was tested for three concentrations (low QC, medium QC, and high QC). The stability of the analytes was determined both in the matrix during storage at 8 °C and in a freeze–thaw test, during which spiked saliva samples were stored at −21 °C. […] The remainder of the sample was placed back in the refrigerator or frozen and analyzed in the following days. The compounds whose concentration decreased by less than 15% under the given storage conditions were considered to be stable.

[3] = set-up: method as in PMID 29403934, PMID 23288091, PMID 29957667; conditions: cited from earlier work
[4] = Stability of analytes in spiked saliva, freeze–thaw test at −21 °C; type: in vitro ADME, human; conditions: freeze–thaw cycles at −21 °C
Method: The stability of the analytes was tested for three concentrations (low QC, medium QC, and high QC). The stability of the analytes was determined both in the matrix during storage at 8 °C and in a freeze–thaw test, during which spiked saliva samples were stored at −21 °C. For each concentration of carbamazepine and metabolite, three 800 μL saliva samples were prepared in plastic tubes, spiked with an appropriate volume of analytes, and mixed. Then, 200 μL of saliva was taken from each sample, IS added, extracted, and chromatographed according to the procedures described in Section 2.4 and Section 2.5. The remainder of the sample was placed back in the refrigerator or frozen and analyzed in the following days.
as §1

[5] = Carbamazepine and carbamazepine-10,11 epoxide concentrations in saliva of patients treated with carbamazepine (UHPLC-DAD after deproteinization); type: in vivo, human
Method: The chromatographic analysis was performed with a Nexer XR UHPLC (Ultra High Performance Liquid Chromatography) liquid chromatograph (Schimadzu, Kyoto, Japan), equipped with a SPD-M30A UV-Vis detector with a diode array and a highly sensitive measuring cell SPD-M30A (85 mm), CBM-20 Alite control system, LC-30AD pump, SIL-30AC autosampler, and CTO-20AC thermostat (Shimadzu, Kyoto, Japan). The compounds were separated using a Luna Omega 1.6 µm Polar C18 (LC Column 50 × 2.1 mm ID) with pre-columns (UHPLC Fully Porous Polar C18, 2.1 mm ID). The compounds were eluted from the column at 35 °C with a mobile phase consisting of water with added formic acid and triethylamine (TEA) (solvent A, pH 4.2) and acetonitrile (solvent B) at a flow of 1 mL/min.
The saliva samples were thawed, centrifuged, and then 200 μL of test material was collected and placed in plastic tubes. A 1% formic acid solution in acetonitrile (600 µL) was added to each of them, mixed with a vortex, shaken (laboratory shaker 358 S, Elpin, Poland) for about 10 min, and centrifuged for 5 min at 8000 rpm. The supernatant was transferred to glass tubes and evaporated. The dry residue was dissolved in 100 μL of an acetonitrile/water mixture with formic acid (1:10), and 10 μL was injected into the chromatographic column.
The usefulness of the method was determined by examining the saliva samples of 20 patients treated with carbamazepine preparations. They were collected from patients of the Nervous and Mentally Ill Hospital in Starogard Gdański (Poland). The study protocol was approved by the ethical committee of the Medical University of Gdansk, Poland (NKBBN/139/2016). Saliva was taken using Salivettes about 2 h after the administration of carbamazepine. The Salivette was placed in a test tube and centrifuged, and the obtained filtrate was frozen at −21 °C and stored until analysis. To perform the analyses, the samples were thawed, centrifuged, and 200 μL of liquid taken. Then, 50 μL of IS solution (10 μg/mL) was added and the procedure described in Section 2.4 was followed.

| Structure (SMILES) | Difference (%) ([1]; 30 ng/mL) | Difference (%) ([1]; 2000 ng/mL) | Difference (%) ([1]; 3750 ng/mL) | stability under the tested conditions [2] | Difference (%) ([2]; 30 ng/mL) | Difference (%) ([2]; 2000 ng/mL) | Difference (%) ([2]; 3750 ng/mL) | half-life ([3]; after a single administration) [h] | excreted in the urine [3] [%] | Difference (%) ([4]; 30 ng/mL) | Difference (%) ([4]; 2000 ng/mL) | Difference (%) ([4]; 3750 ng/mL) | mean concentration in saliva ([5]; female patients) [ng/mL] | mean concentration in saliva ([5]; male patients) [ng/mL] | Carbamazepine Concentration ([5]; saliva of individual patients, about 2 h after administration of carbamazepine, dose 400-1800 mg/day) | highest concentration reduction ([2]; 30 ng/mL in saliva samples stored at 8 °C) [%] | mean concentration in saliva ([5]; female, human, in vivo) [ng/mL] | determined concentrations in patient saliva, range ([5]; human, in vivo) [ng/mL] | mean concentration in saliva ([5]; male, human, in vivo) [ng/mL] |
| --- | --- | --- | --- | --- | --- | --- | --- | --- | --- | --- | --- | --- | --- | --- | --- | --- | --- | --- | --- |
| NC(=O)N1c2ccccc2C=Cc2ccccc21 [Carbamazepine, carbamazepine] | −0.30 | −1.12 | −1.72 | stable | −3.91 | −2.53 | −1.93 | 36 | 72 | −2.25 | −2.16 | −1.44 | 967 | 1882 | 344.7 ng/mL and 690.7 ng/mL and 1285.1 ng/mL and 464.0 ng/mL and 282.2 ng/mL and 472.9 ng/mL and 2456.8 ng/mL and 1668.1 ng/mL and 613.5 ng/mL and 784.3 ng/mL and 1119.9 ng/mL and 607.6 ng/mL and 1198.2 ng/mL and 1192.3 ng/mL and 1817.8 ng/mL and 4891.0 ng/mL and 4839.8 ng/mL and 1165.7 ng/mL and 262.2 ng/mL and 2334.2 ng/mL | – | – | – | – |
| NC(=O)N1c2ccccc2C2OC2c2ccccc21 (centres unmarked) [Carbamazepine-10,11 epoxide, carbamazepine-10,11 epoxide] | −3.64 | −2.3 | 0.38 | stable | −6.23 | −3.56 | −2.75 | – | – | −2.45 | −1.92 | −0.48 | – | – | – | 6 | 249 | 120 to 664 | 299 |
